Assay results as given in ChEMBL document CHEMBL3603746, “Discovery of New H2S Releasing Phosphordithioates and 2,3-Dihydro-2-phenyl-2-sulfanylenebenzo[d][1,3,2]oxazaphospholes with Improved Antiproliferative Activity” (J Med Chem, 2015).

How the values were obtained:
MCF7 [1] = test: Cytotoxicity against human MCF7 cells assessed as inhibition of cell proliferation after 4 days by crystal violet assay; assay type: functional, cell-based; details: MCF7, 96 h
[2] = Induction of H2S release in 10% PBS:MeCN solution at 100 uM incubated at 37 degC in dark condition measured at 72 hrs by 2, 6-dansyl azide probed-based fluorescence assay; assay type: physicochemical; details: buffer
[3] = Induction of H2S release in 10% PBS:MeCN solution at 1 mM incubated at 22 degC in dark condition measured at 72 hrs by 2, 6-dansyl azide probed-based fluorescence assay; assay type: physicochemical; details: buffer, 1000 µM
SK-OV-3 = test: Cytotoxicity against human SKOV3 cells assessed as inhibition of cell proliferation after 4 days by crystal violet assay; assay type: functional, cell-based; details: SK-OV-3, 96 h
[4] = Toxicity in human WI38 cells assessed as inhibition of cell proliferation after 4 days by crystal violet assay
[5] = Therapeutic index, ratio of IC50 for human WI38 cells to IC50 for human SKOV3 cells; details: WI38 cells and SKOV3 cells
[6] = Induction of H2S release in 10% PBS:MeCN solution at 5 mM incubated at 37 degC in dark condition measured at 96 hrs by 2, 6-dansyl azide probed-based fluorescence assay relative to GYY4137; assay type: physicochemical; details: buffer, 5000 µM
[7] = Effective permeability of the compound at 500 uM after 6 hrs by PAMPA
MDA-MB-231 = test: cells; assay type: functional, cell-based; details: Homo sapiens, MDA-MB-231, 72 h
Description: Cytotoxicity against human MDA-MB-231 cells assessed as inhibition of cell proliferation after 72 hrs by MTS assay

[8] = Induction of H2S release in 10% PBS:MeCN solution at 5 mM incubated at 22 degC in dark condition measured at 96 hrs by 2, 6-dansyl azide probed-based fluorescence assay relative to control; details: buffer, 5000 µM
[9] = Induction of H2S release in 10% PBS:MeCN solution assessed as ratio of H2S level at 37 degC to H2S level at 22 degC at 5 mM incubated in dark condition measured at 96 hrs by 2, 6-dansyl azide probed-based fluorescence assay; details: buffer, 5000 µM
[10] = Induction of H2S release in 10% PBS:MeCN solution at 5 mM incubated at 37 degC in dark condition measured at 96 hrs by 0.2 mM 2, 6-dansyl azide probed-based fluorescence assay relative to control; assay type: physicochemical; details: buffer, 5000 µM
MCF7 [11] = test: cells; assay type: functional, cell-based; details: Homo sapiens, MCF7, 72 h
Description: Cytotoxicity against human MCF7 cells assessed as inhibition of cell proliferation after 72 hrs by MTT assay

[12] = Induction of H2S release in 10% PBS:MeCN solution at 5 mM incubated at 22 degC in dark condition measured at 96 hrs by 2, 6-dansyl azide probed-based fluorescence assay relative to GYY4137; assay type: physicochemical; details: buffer, 5000 µM
[13] = Effective permeability of the compound at 500 uM after 16 hrs by PAMPA
physchem = details: DMSO, pH 7.4
Description: Kinetic solubility of the compound in DMSO at pH 7.4 measured at 24 hrs by multiscreen filter paper-based UV absorbance analysis

PC-3 = test: cells; assay type: functional, cell-based; details: Homo sapiens, PC-3, 72 h
Description: Cytotoxicity against human PC3 cells assessed as inhibition of cell proliferation after 72 hrs by MTT assay

Hepatocyte = test: Toxicity in transforming growth factor alpha transgenic mouse hepatocytes at 100 uM after 24 hrs by CellTiter-Glo cell viability assay; assay type: cell-based
[14] = Therapeutic index, ratio of IC50 for human WI38 cells to IC50 for human MCF7 cells; details: WI38 cells and MCF7 cells
[15] = Therapeutic index, ratio of IC50 for human WI38 cells to IC50 for human PC3 cells; details: WI38 cells and PC3 cells
[16] = Therapeutic index, ratio of IC50 for human WI38 cells to IC50 for human MBA-MD-231 cells; details: WI38 cells and MBA-MD-231 cells
[17] = Induction of H2S release in 10% PBS:MeCN solution at 0.5 mM incubated at 22 degC in dark condition measured at 48 hrs by 2, 6-dansyl azide probed-based fluorescence assay relative to 12 uM of GYY4137; assay type: physicochemical; details: buffer, 500 µM
[18] = Induction of H2S release in 10% PBS:MeCN solution at 0.5 mM incubated at 37 degC in dark condition measured at 48 hrs by 2, 6-dansyl azide probed-based fluorescence assay relative to 6.9 uM of GYY4137; assay type: physicochemical; details: buffer, 500 µM
[19] = Induction of H2S release in 10% PBS:MeCN solution at 0.5 mM incubated at 22 degC in dark condition measured at 48 hrs by 2, 6-dansyl azide probed-based fluorescence assay relative to control; assay type: physicochemical; details: buffer, 500 µM
[20] = Induction of H2S release in 10% PBS:MeCN solution at 0.5 mM incubated at 37 degC in dark condition measured at 48 hrs by 1 mM 2, 6-dansyl azide probed-based fluorescence assay relative to control; assay type: physicochemical; details: buffer, 500 µM
[21] = Induction of H2S release in 10% PBS:MeCN solution assessed as ratio of H2S level at 37 degC to H2S level at 22 degC at 0.5 mM incubated in dark condition measured at 96 hrs by 2, 6-dansyl azide probed-based fluorescence assay; assay type: physicochemical; details: buffer, 500 µM

Cc1ccc2c(c1)OP(=S)(c1ccc(Oc3ccccc3)cc1)N2 (stereo not drawn)
IC50 (MCF7 [1]): 186 µM
Activity [2]: 59.9 µM
Activity [3]: 39.2 µM
IC50 (SK-OV-3): 196 µM
IC50 at 4 days [4]: > 400 µM
selectivity ratio [5]: 2

COc1ccc(P(=S)(S)OCCCN)cc1 (stereo not drawn)
fold change (FC) [6]: < 0.1
Papp at 6 h, 500 µM ([7]; PAMPA): 0.007 ×10⁻⁶ cm/s
IC50 (MCF7 [1]): > 400 µM
IC50 (MDA-MB-231): > 500 µM
%max [8]: 0.02%
Ratio [9]: 2.7
%max [10]: 0.06%
IC50 (MCF7 [11]): > 500 µM
IC50 (SK-OV-3): > 400 µM
fold change (FC) [12]: < 0.1
Papp at 16 h, 500 µM [13]: 0.0027 ×10⁻⁶ cm/s
solubility kinetic at 24 h (physchem): > 280 µg/mL

COc1ccc(P2(=S)Nc3ccc(C)cc3O2)cc1 (stereo not drawn)
IC50 (MCF7 [1]): 93.2 µM
Activity [2]: 48.2 µM
Activity [3]: 59 µM
IC50 (SK-OV-3): 211 µM
IC50 at 4 days [4]: > 400 µM
selectivity ratio [5]: 1.9

COc1ccc(P2(=S)Nc3cc(F)ccc3O2)cc1 (stereo not drawn)
IC50 (MCF7 [1]): 33.6 µM
Activity [2]: 33.3 µM
Activity [3]: 53.8 µM
IC50 (SK-OV-3): 70.8 µM
IC50 at 4 days [4]: > 200 µM
selectivity ratio [5]: 2.8

C1COCCN1.COc1ccc(P(=S)(S)OC)cc1 (stereo not drawn)
fold change (FC) [6]: < 0.1
Peff ([7]; pampa, 6 h, 500 µM): 0.003 ×10⁻⁷ cm/s
IC50 (MCF7 [1]): 450 µM
IC50 (PC-3): > 200 µM
IC50 (MDA-MB-231): 216 µM
%max [8]: 0.06%
Ratio [9]: 2.5
%max [10]: 0.15%
IC50 (MCF7 [11]): 446 µM
IC50 (SK-OV-3): 430 µM
Activity (Hepatocyte): Non-toxic
fold change (FC) [12]: < 0.1
Papp at 16 h, 500 µM [13]: 0.0031 ×10⁻⁶ cm/s

C1COCCN1.COP(=S)(S)c1ccc(Oc2ccccc2)cc1 (stereo not drawn)
fold change (FC) [6]: < 0.1
IC50 (MCF7 [1]): 181 µM
IC50 (PC-3): 73.1 µM
IC50 (MDA-MB-231): 87 µM
%max [8]: 0.06%
selectivity ratio [14]: 1.9
selectivity ratio [15]: 1.9
Ratio [9]: 2.7
%max [10]: 0.16%
IC50 (MCF7 [11]): 202 µM
IC50 (SK-OV-3): 165 µM
IC50 at 4 days [4]: 347 µM
selectivity ratio [5]: 1.9
fold change (FC) [12]: < 0.1
selectivity ratio [16]: 1.9

Fc1ccc2c(c1)NP(=S)(c1ccc(Oc3ccccc3)cc1)O2 (stereo not drawn)
IC50 (MCF7 [1]): 13.6 µM
Activity [2]: Not Active
Activity [3]: 5 µM
selectivity ratio [14]: 1.7
IC50 (SK-OV-3): 38.1 µM
IC50 at 4 days [4]: 65.6 µM
selectivity ratio [5]: 1.7

NCc1ccccc1.S=P(S)(NCc1ccccc1)NCc1ccccc1
IC50 (MCF7 [1]): 145 µM
fold change (FC) [17]: 2
fold change (FC) [18]: 2.8
IC50 (MDA-MB-231): 104 µM
selectivity ratio [14]: 1.4
selectivity ratio [15]: 1.4
%max [19]: 2.4%
IC50 (MCF7 [11]): 218 µM
IC50 (SK-OV-3): 189 µM
IC50 at 4 days [4]: 266 µM
selectivity ratio [5]: 1.4
%max [20]: 1.9%
Ratio [21]: 0.8
selectivity ratio [16]: 1.4

COc1ccc(P2(=S)Nc3ccccc3O2)cc1 (stereo not drawn)
IC50 (MCF7 [1]): 37.1 µM
Activity [2]: 42.7 µM
Activity [3]: 48.3 µM
selectivity ratio [14]: 2.5
IC50 (SK-OV-3): 38.1 µM
IC50 at 4 days [4]: 94.4 µM
selectivity ratio [5]: 2.5

C1COCCN1.CCCCOP(=S)(S)c1ccc(OC)cc1 (stereo not drawn)
fold change (FC) [6]: < 0.1
IC50 (MCF7 [1]): 92 µM
IC50 (PC-3): 79.1 µM
IC50 (MDA-MB-231): 77.6 µM
%max [8]: 0.04%
selectivity ratio [14]: 1.1
selectivity ratio [15]: 1.1
Ratio [9]: 3.2
%max [10]: 0.12%
IC50 (MCF7 [11]): 193 µM
IC50 at 4 days [4]: 177 µM
selectivity ratio [5]: 1.1
fold change (FC) [12]: < 0.1
selectivity ratio [16]: 1.1

COc1ccc(P2(=S)Oc3ccccc3N2C)cc1 (stereo not drawn)
IC50 (MCF7 [1]): 42.6 µM
Activity [2]: 10.1 µM
Activity [3]: 2.1 µM
selectivity ratio [14]: 2.1
IC50 (SK-OV-3): 44.2 µM
IC50 at 4 days [4]: 92.5 µM
selectivity ratio [5]: 2.1

NCC1CCCCC1.S=P(S)(NCC1CCCCC1)NCC1CCCCC1
IC50 (MCF7 [1]): 172 µM
fold change (FC) [17]: 6.8
fold change (FC) [18]: 31.6
IC50 (MDA-MB-231): > 500 µM
selectivity ratio [14]: 1
selectivity ratio [15]: 1
%max [19]: 0.82%
IC50 (MCF7 [11]): > 500 µM
IC50 (SK-OV-3): 179 µM
IC50 at 4 days [4]: 287 µM
selectivity ratio [5]: 1
%max [20]: 21.8%
Ratio [21]: 2.7
selectivity ratio [16]: 1

COc1ccc(P2(=S)Nc3cc(OC)ccc3O2)cc1 (stereo not drawn)
IC50 (MCF7 [1]): 39.4 µM
Activity ([2]; BLD = below limit of detection): BLD
Activity ([3]; BLD = below limit of detection): BLD
selectivity ratio [14]: 2.9
IC50 (SK-OV-3): 30.2 µM
IC50 at 4 days [4]: 115 µM
selectivity ratio [5]: 2.9

CN1c2ccccc2OP1(=S)c1ccccc1 (stereo not drawn)
IC50 (MCF7 [1]): 72.7 µM
Activity [2]: 20.7 µM
Activity [3]: 24.4 µM
selectivity ratio [14]: 2.8
IC50 (SK-OV-3): 69.4 µM
IC50 at 4 days [4]: 207 µM
selectivity ratio [5]: 2.8

C1COCCN1.COc1ccc(P(=S)(S)OC(C)C)cc1 (stereo not drawn)
fold change (FC) [6]: < 0.1
IC50 (MCF7 [1]): 266 µM
IC50 (MDA-MB-231): 84.6 µM
%max [8]: 0.04%
selectivity ratio [14]: 1.5
Ratio [9]: 3
%max [10]: 0.12%
IC50 (MCF7 [11]): 205 µM
IC50 (SK-OV-3): 200 µM
IC50 at 4 days [4]: > 400 µM
selectivity ratio [5]: 1.5
fold change (FC) [12]: < 0.1
selectivity ratio [16]: 1.5
